ChEMBL document CHEMBL3616452 (Eur J Med Chem, 2015)
The source made the active and inactive calls. The rule behind the calls is not given here.

Key:
MDCK [1] = experiment: Inhibition of nucleoprotein synthesis in Influenza A virus (A/WSN/1933(H1N1)) infected in MDCK cells at 0.3 and 1 uM dosed > 0.5 hrs post infection by fluorescence analysis; assay type: functional, organism-based
MDCK [2] = experiment: Inhibition of nucleoprotein synthesis in Influenza A virus (A/WSN/1933(H1N1)) infected in MDCK cells by fluorescence analysis; assay type: functional, cell-based
MDCK [3] = experiment: Antiviral activity against wild-type Influenza A virus (A/WSN/1933(H1N1)) assessed as virus-mediated cytopathic effect in MDCK cells at 0.3 uM; assay type: functional, cell-based
MDCK [4] = experiment: Inhibition of nucleoprotein synthesis in Influenza A virus (A/WSN/1933(H1N1)) infected in MDCK cells at 0.3 uM dosed 0.5 hrs post infection by fluorescence analysis; assay type: functional, organism-based
Nucleoprotein = Nucleoprotein (Influenza A virus (strain A/Wilson-Smith/1933 H1N1), UniProt P15682); experiment: Binding affinity to Influenza A virus (A/WSN/1933(H1N1)) nucleoprotein transfected in 293T cells assessed as inhibition of RNA dependent RNA polymerase activity; assay type: cell-based
Nucleoprotein, sequence (P15682 whole entry): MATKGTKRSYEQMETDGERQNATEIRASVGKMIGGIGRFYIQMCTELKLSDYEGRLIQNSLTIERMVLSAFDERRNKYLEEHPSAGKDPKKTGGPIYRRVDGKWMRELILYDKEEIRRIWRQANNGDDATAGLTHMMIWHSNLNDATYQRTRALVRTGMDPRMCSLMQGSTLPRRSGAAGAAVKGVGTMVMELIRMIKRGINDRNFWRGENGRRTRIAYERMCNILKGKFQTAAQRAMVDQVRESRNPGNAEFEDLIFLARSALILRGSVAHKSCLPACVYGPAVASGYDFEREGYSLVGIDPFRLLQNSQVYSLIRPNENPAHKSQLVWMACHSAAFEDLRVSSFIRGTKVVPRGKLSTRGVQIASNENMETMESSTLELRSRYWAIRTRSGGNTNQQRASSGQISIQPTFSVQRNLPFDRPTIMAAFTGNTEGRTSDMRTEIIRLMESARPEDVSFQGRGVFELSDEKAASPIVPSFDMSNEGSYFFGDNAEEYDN

MDCK [5] = experiment: Inhibition of nucleoprotein synthesis in Influenza A virus (A/WSN/1933(H1N1)) infected in MDCK cells at 1.0 uM dosed 0.5 hrs post infection by fluorescence analysis; assay type: functional, organism-based
[6] = Antiviral activity against Influenza A virus (A/WSN/1933(H1N1)) assessed as virus-mediated cytopathic effect in MDCK cells after 48 to 72 hrs; assay type: functional, cell-based
MDCK [7] = experiment: Inhibition of nucleoprotein synthesis in Influenza A virus (A/WSN/1933(H1N1)) infected in MDCK cells at 15.0 uM by immunofluorescence assay; assay type: functional, cell-based
MDCK [8] = experiment: Inhibition of nucleoprotein synthesis in Influenza A virus (A/WSN/1933(H1N1)) infected in MDCK cells at 3.0 uM by immunofluorescence assay; assay type: functional, cell-based
[9] = Antiviral activity against wild-type Influenza A virus (A/WSN/1933(H1N1)) assessed as virus-mediated cytopathic effect in MDCK cells; assay type: functional, cell-based
MDCK [10] = experiment: Inhibition of nucleoprotein synthesis in Influenza A virus (A/WSN/1933(H1N1)) infected in MDCK cells at 10.0 uM dosed post-infection by fluorescence analysis; assay type: functional, organism-based

Row | Structure (SMILES) | EC50 [6] | other results
1 | Cc1onc(-c2ccccc2Cl)c1C(=O)N1CCN(c2ccc([N+](=O)[O-])cc2)CC1 | – | inhibition (MDCK [1]): inactive; inhibition (MDCK [2]): Active; Activity (MDCK [3]): Active; inhibition (MDCK [4]): Active; IC50 (Nucleoprotein): 0.23 µM; inhibition (MDCK [5]): Active
2 | Cn1c(=O)c2c(-c3ccccc3)n3c(c2n(C)c1=O)C(c1ccccc1Cl)OCC3(C)C (centres undefined) | 8 µM | –
3 | Cn1c(=O)c2c(-c3ccccc3)n3c(c2n(C)c1=O)C(C1CCCCC1)OCC3(C)C (centres undefined) | > 50 µM | –
4 | Cn1c(=O)c2c(-c3ccccc3)n3c(c2n(C)c1=O)C(c1ccccc1)OCC3(C)C (centres undefined) | 5.4 µM | –
5 | Cn1c(=O)c2c(-c3ccccc3)n3c(c2n(C)c1=O)C(C1CCCCC1)OCC3 (centres undefined) | > 50 µM | –
6 | Cn1c(=O)c2c(-c3ccccc3)n3c(c2n(C)c1=O)C(C1CCCC1)OCC3 (centres undefined) | > 50 µM | –
7 | Cn1c(=O)c2c(-c3ccccc3)n3c(c2n(C)c1=O)C(c1ccccc1)OCC3 (centres undefined) | > 50 µM | –
8 | Cn1c(=O)c2c(-c3ccccc3)n3c(c2n(C)c1=O)C(c1ccc(C(F)(F)F)cc1)OCC3(C)C (centres undefined) | > 50 µM | –
9 | COc1ccc(C2OCC(C)(C)n3c(-c4ccccc4)c4c(=O)n(C)c(=O)n(C)c4c32)cc1 (centres undefined) | > 50 µM | –
10 | Cn1c(=O)c2c(-c3ccccc3)n3c(c2n(C)c1=O)C(c1ccco1)OCC3 (centres undefined) | > 50 µM | –
11 | CCCn1c(=O)c2c(-c3ccccc3)n3c(c2n(CCC)c1=O)C(C1CCCCC1)OCC3 (centres undefined) | > 50 µM | –
12 | Cn1c(=O)c2c(-c3ccccc3)n3c(c2n(C)c1=O)C(c1ccccc1F)OCC3(C)C (centres undefined) | 1 µM | inhibition (MDCK [2]; TDE = time-dependent effect): tde; IC50 (Nucleoprotein): 4.9 µM; inhibition (MDCK [7]): Active; inhibition (MDCK [8]): inactive; EC50 [9]: 2.3 µM; inhibition (MDCK [10]): Active
13 | Cn1c(=O)c2c(-c3ccccc3)n3c(c2n(C)c1=O)C(c1ccc(Br)o1)OCC3 (centres undefined) | > 50 µM | –
14 | Cn1c(=O)c2c(-c3ccccc3)n3c(c2n(C)c1=O)C(c1cccs1)OCC3(C)C (centres undefined) | 6.8 µM | –
15 | Cn1c(=O)c2c(-c3ccccc3)n3c(c2n(C)c1=O)C(c1ccccc1Cl)OCC3 (centres undefined) | > 50 µM | –
16 | Cn1c(=O)c2c(-c3ccccc3)n3c(c2n(C)c1=O)C(c1ccccc1F)OCC3 (centres undefined) | > 50 µM | –
17 | CCCC1OCCn2c(-c3ccccc3)c3c(=O)n(C)c(=O)n(C)c3c21 (centres undefined) | > 50 µM | –
18 | Cn1c(=O)c2c(-c3ccccc3)n3c(c2n(C)c1=O)C(c1cccs1)OCC3 (centres undefined) | > 50 µM | –
